From article PMC5411871 (African Journal of Traditional, Complementary, and …, 2016)

Biological target: T1, Lipoxygenase (type I-B) (Glycine max, UniProt P08170)
T1 sequence (P08170 1-839): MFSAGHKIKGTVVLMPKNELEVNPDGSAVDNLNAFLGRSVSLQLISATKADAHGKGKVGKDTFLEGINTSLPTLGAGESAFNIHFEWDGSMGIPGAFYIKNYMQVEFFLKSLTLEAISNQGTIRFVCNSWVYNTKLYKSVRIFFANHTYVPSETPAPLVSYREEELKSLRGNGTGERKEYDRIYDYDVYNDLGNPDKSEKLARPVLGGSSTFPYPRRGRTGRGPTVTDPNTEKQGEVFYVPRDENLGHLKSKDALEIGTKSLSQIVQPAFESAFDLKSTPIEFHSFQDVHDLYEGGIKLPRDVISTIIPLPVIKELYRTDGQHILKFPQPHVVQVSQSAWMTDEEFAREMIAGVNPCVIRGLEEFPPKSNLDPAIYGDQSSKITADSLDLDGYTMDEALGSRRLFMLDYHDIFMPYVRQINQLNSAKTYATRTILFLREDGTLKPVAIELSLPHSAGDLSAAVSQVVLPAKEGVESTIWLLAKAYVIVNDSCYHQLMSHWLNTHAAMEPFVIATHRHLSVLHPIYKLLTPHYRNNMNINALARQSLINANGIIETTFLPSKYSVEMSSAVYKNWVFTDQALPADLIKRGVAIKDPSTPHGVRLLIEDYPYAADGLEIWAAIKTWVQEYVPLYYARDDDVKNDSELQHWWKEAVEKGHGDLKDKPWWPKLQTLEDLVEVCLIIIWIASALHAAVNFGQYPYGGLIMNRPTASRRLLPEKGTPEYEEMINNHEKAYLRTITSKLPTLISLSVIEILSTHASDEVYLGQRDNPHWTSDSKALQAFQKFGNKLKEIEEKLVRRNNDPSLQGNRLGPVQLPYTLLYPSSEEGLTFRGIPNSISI
Test: absorbance at […] nm, linoleic acid oxidation
Format: biochemical

C[C@H]1C(=O)CC[C@@H]2[C@]1(C)CC[C@H]1[C@@]2(C)CC[C@@]2(C)[C@@H]3CC(C)(C)CC[C@]3(C)CC[C@]12C [compound 1, friedelin]
IC50: 57.3 µM

CC1(C)C[C@@H](O)[C@]2(C)CC[C@]3(C)C(=CC[C@@H]4[C@@]5(C)CC[C@H](O)C(C)(C)[C@@H]5CC[C@]43C)[C@@H]2C1 [compound 3, sopharadiol]
IC50: 54 µM
